Test results published in PMC11274801, “A Novel PDE10A Inhibitor for Tourette Syndrome and Other Movement Disorders” (Cells, 2024).

Legend:
[1] = system: patients with stage I–II HD; design: method as in earlier work; settings: cited from earlier work
primates = system: primates; design: method as in PMID 24490227; settings: cited from earlier work
striatal cAMP and cGMP = assay: cAMP and cGMP levels in the striatum; format: in vivo, rat; settings: maximal dose 30 mg/kg
Procedure: The striatum was dissected, weighed, and then frozen in liquid nitrogen. For cyclic nucleotide measurements, frozen striatal tissue was homogenized in 5% trichloroacetic acid and centrifuged and the supernatant was collected. Supernatants were ether-washed and then the cAMP and cGMP levels in the aqueous phase were determined by enzyme immunoassay using kits from Cayman Chemical Co. (Ann Arbor, MI, USA)

D2 receptor = settings: 2–5 mg daily ref 54; cited from earlier work
acute schizophrenia = settings: press release ref 44; cited from earlier work

Cn1cc(-c2ccncc2)c(-c2ccc(OCc3ccc4ccccc4n3)cc2)n1 [MP-10]
primary outcome (UHDRS-TMS) and clinical global impression of improvement ([1]; 26-week phase 2, 272 patients ref 45): no improvement in the primary outcome measure
quantitative motor assessment (Q-motor) ([1]; 26-week phase 2 ref 45): dose-dependent improvement
effect on motivational aspects of behavior (primates): dampen motivational aspects of behavior to a greater extent than a D2 antagonist
effect on striatal cAMP and cGMP levels (striatal cAMP and cGMP): increases

O=C(CCCN1CCC(O)(c2ccc(Cl)cc2)CC1)c1ccc(F)cc1 [haloperidol]
D2 occupancy (D2 receptor): 60–80%

Cc1ncc(C)n2nc(-c3ccn4cc(-c5ccccc5)nc4n3)nc12 [CPL500-036]
efficacy in acute schizophrenia (acute schizophrenia): positive efficacy vs. placebo
